Results from PMC9485725, “The AIRE G228W mutation disturbs the interaction of AIRE with its partner molecule SIRT1” (Frontiers in Immunology, 2022).

Biological target: T1, human SIRT1 (Homo sapiens, UniProt Q96EB6)
T1 construct: purchased Sigma–Aldrich S8846
T1 sequence (Q96EB6 1-747): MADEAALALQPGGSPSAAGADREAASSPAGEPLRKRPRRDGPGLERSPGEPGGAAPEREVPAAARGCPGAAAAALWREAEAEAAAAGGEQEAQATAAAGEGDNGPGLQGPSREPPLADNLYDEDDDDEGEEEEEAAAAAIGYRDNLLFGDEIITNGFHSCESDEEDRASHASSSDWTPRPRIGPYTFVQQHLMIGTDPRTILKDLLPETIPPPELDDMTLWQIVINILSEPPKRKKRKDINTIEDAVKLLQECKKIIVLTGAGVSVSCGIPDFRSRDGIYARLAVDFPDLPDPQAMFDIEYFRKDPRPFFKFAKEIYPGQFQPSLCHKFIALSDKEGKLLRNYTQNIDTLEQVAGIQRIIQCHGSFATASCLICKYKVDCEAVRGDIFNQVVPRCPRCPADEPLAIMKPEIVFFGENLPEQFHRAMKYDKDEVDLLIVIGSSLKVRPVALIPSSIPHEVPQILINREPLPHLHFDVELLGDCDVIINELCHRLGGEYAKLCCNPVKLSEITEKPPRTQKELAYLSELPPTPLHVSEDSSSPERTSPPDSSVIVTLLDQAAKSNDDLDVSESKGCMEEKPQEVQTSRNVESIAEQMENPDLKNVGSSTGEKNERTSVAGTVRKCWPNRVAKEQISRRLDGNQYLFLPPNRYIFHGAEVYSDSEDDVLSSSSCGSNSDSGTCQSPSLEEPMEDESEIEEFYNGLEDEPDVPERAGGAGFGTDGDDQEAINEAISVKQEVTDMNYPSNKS
Assay: Surface plasmon resonance (Biacore T200) of SAND peptides on immobilized SIRT1
Format: binding
Details: for binding kinetics (association and dissociation) with SIRT1: SPR sensorgrams, 20, 100, 200 µM, dissociation time 1200 s; for binding kinetics (association and dissociation) with SIRT1 / association with SIRT1: contact time 300 s; for binding kinetics (association and dissociation) with SIRT1 / affinity (as seen through binding and dissociation) with SIRT1: in words; for association with SIRT1 / association with SIRT1 with increasing peptide concentration / affinity (as seen through binding and dissociation) with SIRT1: SPR; for association with SIRT1: Biacore T200, CM5 chip, human SIRT1 immobilized in 10 mM sodium acetate pH 4.0 plus 20 µM NAD+, peptides (K222 acetylated) 20, 100, 200 μM, 20 μl/min, described in words; for association with SIRT1 with increasing peptide concentration: six peptide concentrations 10, 15, 20, 50, 100, 200 µM plus control 0 µM, Supplementary Figure 1; for affinity (as seen through binding and dissociation) with SIRT1: wild-type versus mutant peptide
Method: The surface plasmon resonance (SPR) experiments were performed on Biacore Model T200 equipment (GE Healthcare Biosciences, Uppsala, Sweden). For the immobilization of human SIRT1 (catalog number S8846, Sigma–Aldrich, Saint Louis, MO), a CM5 sensor chip S series (GE Healthcare Biosciences) has carboxylic groups available for covalent coupling was used. All solutions used were purchased from the equipment supplier (GE Healthcare Biosciences). The procedures described here were performed automatically with the Biacore instrument using pre-established programs for binding amines in peptides or proteins.
Briefly, the carboxylic groups on the CM5 sensor chip surface were activated with EDC + NHS, forming the NHS ester reactive intermediate, which, after washing with HBS-N, readily reacted with amines dissolved in the immobilization solution. The human SIRT1 ligand was dissolved in 10 mM sodium acetate pH 4.0 plus 20 µM NAD+ (catalog number N1636, beta-nicotinamide adenine dinucleotide hydrate, Sigma–Aldrich), which was immobilized onto the Biacore sensor chip according to the manufacturer´s instructions.
To detect interactions between SIRT1 and AIRE WT or AIRE G228W mutant SAND domain peptides, different concentrations of peptides were injected onto the CM5 chip with immobilized SIRT1 protein. […] The surface was regenerated between samples by injecting 2.0 M glycine pH 2.0 (30 s, 30 μl/min) followed by injection of 2.0 M NaCl (30 s, 30 μl/min). The stabilization period between injections after regeneration was 200 s.
The respective sequences of the twenty-amino acid peptide residues (Synbio Technologies, Monmouth Junction, NJ, USA) comprising positions 211 to 230 of the SAND domain of the human AIRE protein are as follows: from the C to N-terminus, AIRE wild-type ([…]) and AIRE G228W mutant ([…]). The underlined K residue represents the position where the acetyl radical was added. The experiment determined whether the K residue underlined was acetylated or not. The AIRE wild-type or AIRE G228W mutation data are available through GenBank NCBI (https://www.ncbi.nlm.nih.gov/) accession numbers (NM_000383.4): c.682G>T G [GGG] > W [TGG], coding sequence variant autoimmune regulator (NP_000374.1): p. Gly228TrpG (Gly) > W missense variant, DbSNP (https://www.ncbi.nlm.nih.gov/snp/rs121434257) and ClinVar (https://www.ncbi.nlm.nih.gov/clinvar/variation/3313/).
Kinetic data were analyzed with Anabel Analysis of Binding Events software ([32]), available at (www.skscience.org/anabel). Data obtained with the different concentrations of AIRE WT or mutant peptides were combined in the same graph.

| Sequence | binding kinetics (association and dissociation) with SIRT1 (listed as WT AIRE SAND peptide (Gly228)) | binding kinetics (association and dissociation) with SIRT1 (listed as wild-type SAND domain peptide) | association with SIRT1 | association with SIRT1 with increasing peptide concentration | affinity (as seen through binding and dissociation) with SIRT1 | association with SIRT1 (listed as G228W mutant peptide) | association with SIRT1 (listed as mutant AIRE SAND peptide (Trp228)) |
| --- | --- | --- | --- | --- | --- | --- | --- |
| IQQVFESGGSKKCIQVGGEF [wild-type SAND G228 peptide, twenty-amino acid peptide comprising positions 211 to 230 of the SAND domain of the human AIRE protein, wild-type] | associated and dissociated with SIRT1 throughout the analysis | bound faster and dissociated longer | more significant association capacity | progressive increase in the association | stronger affinity | – | – |
| IQQVFESGGSKKCIQVGWEF [mutant W228 SAND peptide, twenty-amino acid peptide comprising positions 211 to 230 of the SAND domain of the human AIRE protein, G228W mutant] | – | – | less able to associate with SIRT1 | not observed | weaker association | weaker association | lesser association affinity |
